Reference: PubChem BioAssay AID504685 (Sanford-Burnham Center for Chemical Genomics, 2011)
Activity calls are given as the source filed them. The rule behind the calls is not given here.

Molecular target: Bcl-2-related protein A1 (Mus musculus) (UniProt Q07440)
Experiment: off-target activity on mouse Bfl-1 – biochemical, counter-screen for UBC13 polyubiquitination inhibitor project, SAR follow-up (AID 504685)
Settings: Bfl-1 counterscreen for UBC13 inhibitors

SMILES | IC50
CC1CC(C)CN(C(=O)C2CCN(c3ncnc4c3nc3n4CCCCC3)CC2)C1 (stereo not drawn) | > 100 µM (inactive)
CC1(C)Cc2c(sc(NC(=O)COc3ccc(Cl)cc3Cl)c2C(N)=O)C(C)(C)N1 | > 100 µM (inactive)
O=C1c2cccc3cccc(c23)C(=O)N1CCN1CCN(CC(O)COc2ccc(Cl)cc2)CC1 (stereo not drawn) | > 100 µM (inactive)
O=C(NCC1CCN(Cc2ccc(Cl)cc2)CC1)C1CCCN(c2ncnc3c2nc2n3CCCCC2)C1 (stereo not drawn) | > 100 µM (inactive)
CC(C)(C)c1ccc(OCC(O)CN2CCN(CCN3C(=O)c4cccc5cccc(c45)C3=O)CC2)cc1 (stereo not drawn) | > 100 µM (inactive)
COc1cc2nc(N(CCCN(C)C)C(=O)c3ccc(S(=O)(=O)N4CCc5ccccc5C4)cc3)sc2cc1OC | 69.3 µM
COc1ccc2sc(N(CCCN(C)C)C(=O)c3ccc(S(=O)(=O)N(C)Cc4ccccc4)cc3)nc2c1 | 79.4 µM
O=C(C1CCN(c2ncnc3c2nc2n3CCCCC2)CC1)N1CCOCC1 | > 100 µM (inactive)
CC(=O)c1ccc(OCC(O)CN2CCN(CCN3C(=O)c4cccc5cccc(c45)C3=O)CC2)cc1 (stereo not drawn) | 73.5 µM
Cc1cc(C)cc(OCCNC(=O)CCCCCN2C(=O)c3ccccc3C2=O)c1 | > 100 µM (inactive)
Cc1ccc2nc(N(CCCN(C)C)C(=O)c3ccc4c(c3)CCCC4)sc2c1 | > 100 µM (inactive)
O=C(NCC1CCN(Cc2ccccc2F)CC1)C1CCCN(c2ncnc3c2nc2n3CCCCC2)C1 (stereo not drawn) | > 100 µM (inactive)
O=C1c2cccc3cccc(c23)C(=O)N1CCN1CCN(CC(O)COc2ccc3ccccc3c2)CC1 (stereo not drawn) | > 100 µM (inactive)
COc1ccc2sc(N(CCCN(C)C)C(=O)c3ccc(S(=O)(=O)N4CCc5ccccc5C4)cc3)nc2c1 | > 100 µM (inactive)
CCOC(=O)c1c(NC(=O)COc2ccccc2C#N)sc2c1CC(C)(C)NC2(C)C | > 100 µM (inactive)
Cc1ccc(C)c(CN2CCC(CNC(=O)C3CCCN(c4ncnc5c4nc4n5CCCCC4)C3)CC2)c1 (stereo not drawn) | > 100 µM (inactive)
CCc1ccc2nc(N(CCCN(C)C)C(=O)c3ccc(S(=O)(=O)N4CCc5ccccc5C4)cc3)sc2c1 | > 100 µM (inactive)
CCCN1CCN(C(=O)C2CCN(c3ncnc4c3nc3n4CCCCC3)CC2)CC1 | > 100 µM (inactive)
O=C(c1ccco1)N1CCN(C(=O)C2CCN(c3ncnc4c3nc3n4CCCCC3)CC2)CC1 | > 100 µM (inactive)
CCN(Cc1ccccc1)S(=O)(=O)c1ccc(C(=O)N(CCCN(C)C)c2nc3cc4c(cc3s2)OCCO4)cc1 | 84 µM

SMILES | IC50
COc1cccc(NC(=O)CCCCCN2C(=O)c3cccc([N+](=O)[O-])c3C2=O)c1 | > 100 µM (inactive)
O=C(Nc1ccc(F)c(Cl)c1)C1CCN(c2ncnc3c2nc2n3CCCCC2)CC1 | > 100 µM (inactive)
COc1ccc(CCNC(=O)CCCCCN2C(=O)c3ccccc3C2=O)cc1OC | > 100 µM (inactive)
COc1ccc(OC)c2sc(N(CCCN(C)C)C(=O)c3ccc(S(=O)(=O)N4CCc5ccccc5C4)cc3)nc12 | 12 µM
O=C(CCCCCN1C(=O)c2ccccc2C1=O)N1CCN(c2ccc([N+](=O)[O-])cc2)CC1 | > 100 µM (inactive)
COc1ccc(C(=O)Nn2c(C)nc3ccccc3c2=O)cc1 | > 100 µM (inactive)
CCOc1cccc2sc(N(CCCN(C)C)C(=O)c3ccc(S(=O)(=O)N(CC)Cc4ccccc4)cc3)nc12 | 86.6 µM
CCOc1ccc(NC(=O)Cn2c(=O)n(CCCC(=O)NC3CCN(Cc4ccccc4)CC3)c(=O)c3ccccc32)cc1 | > 100 µM (inactive)
COc1ccc(C)c2sc(N(CCCN(C)C)C(=O)c3ccc(S(=O)(=O)N(C)C)cc3)nc12 | > 100 µM (inactive)
CN(C)CCCN(C(=O)c1ccc2c(c1)CCCC2)c1nc2ccc(Cl)cc2s1 | > 100 µM (inactive)
CN(C)CCCN(C(=O)c1ccc(S(=O)(=O)N2CCCCCC2)cc1)c1nc2cc3c(cc2s1)OCCO3 | > 100 µM (inactive)
Cc1ccccc1OCC(O)CN1CCN(CCN2C(=O)c3cccc4cccc(c34)C2=O)CC1 (stereo not drawn) | > 100 µM (inactive)
COc1ccc(COCC(O)CN2CCC(CN3C(=O)c4cccc5cccc(c45)C3=O)CC2)cc1OC (stereo not drawn) | > 100 µM (inactive)
Cc1ccc2nc(N(CCCN(C)C)C(=O)c3ccc(S(=O)(=O)N4CCc5ccccc5C4)cc3)sc2c1 | > 100 µM (inactive)
Cc1cc(C)c2sc(N(CCCN(C)C)C(=O)c3ccc(S(=O)(=O)N(C)C4CCCCC4)cc3)nc2c1 | > 100 µM (inactive)
Cc1ccc(NC(=O)C2CCN(c3ncnc4c3nc3n4CCCCC3)CC2)cc1Cl | > 100 µM (inactive)
CC(=O)Nc1ccc(OCC(O)CN2CCN(CCN3C(=O)c4cccc5cccc(c45)C3=O)CC2)cc1 (stereo not drawn) | > 100 µM (inactive)
C=CCc1ccccc1OCC(O)CN1CCN(CCN2C(=O)c3cccc4cccc(c34)C2=O)CC1 (stereo not drawn) | > 100 µM (inactive)
CN(C)CCCN(C(=O)c1ccc(S(=O)(=O)N2CCCCCC2)cc1)c1nc2ccc(Br)cc2s1 | > 100 µM (inactive)
CCC1CCCCN1CCCNC(=O)C1CCN(c2ncnc3c2nc2n3CCCCC2)CC1 (stereo not drawn) | > 100 µM (inactive)

SMILES | IC50
CCN(Cc1ccccc1)S(=O)(=O)c1ccc(C(=O)N(CCCN(C)C)c2nc3cc(C)cc(C)c3s2)cc1 | > 100 µM (inactive)
O=C(CCCCn1c(=O)c2ccccc2n(Cc2ccccc2F)c1=O)NC1CCN(Cc2ccccc2)CC1 | > 100 µM (inactive)
O=C(C1CCN(c2ncnc3c2nc2n3CCCCC2)CC1)N1CCN(Cc2ccccc2)CC1 | > 100 µM (inactive)
CC(NC(=O)CCCCCN1C(=O)c2cccc([N+](=O)[O-])c2C1=O)c1ccccc1 (stereo not drawn) | > 100 µM (inactive)
O=C(C1COc2ccccc2O1)N1CCN(CCN2C(=O)c3cccc4cccc(c34)C2=O)CC1 (stereo not drawn) | > 100 µM (inactive)
O=C(NCCCN1CCCCC1)C1CCN(c2ncnc3c2nc2n3CCCCC2)CC1 | > 100 µM (inactive)
Cc1ccc2c(c1)C1CN(C)CCC1N2C(=O)CCCN1C(=O)c2cccc3cccc(c23)C1=O (stereo not drawn) | > 100 µM (inactive)
O=C(CCCn1c(=O)c2ccccc2n(Cc2ccc(Cl)cc2)c1=O)NC1CCN(Cc2ccccc2)CC1 | > 100 µM (inactive)
O=C(CCCn1c(=O)c2ccccc2n(Cc2ccccc2F)c1=O)NC1CCN(Cc2ccccc2)CC1 | > 100 µM (inactive)
CCCCN(CC)S(=O)(=O)c1ccc(C(=O)N(CCCN(C)C)c2nc3cc(C)cc(C)c3s2)cc1 | > 100 µM (inactive)
COC(=O)c1ccc(OCC(O)CN2CCN(CCN3C(=O)c4cccc5cccc(c45)C3=O)CC2)cc1 (stereo not drawn) | 56.9 µM
CN1CCN(CCCNC(=O)c2ccc(/C=C3\Oc4ccccc4N(Cc4ccc(Cl)cc4)C3=O)cc2)CC1 | > 100 µM (inactive)
O=C1c2cccc3cccc(c23)C(=O)N1CCN1CCN(CC(O)COc2ccc3c(c2)OCO3)CC1 (stereo not drawn) | > 100 µM (inactive)
Cc1cc(C)c2sc(N(CCCN(C)C)C(=O)c3ccc(S(=O)(=O)N(C)Cc4ccccc4)cc3)nc2c1 | > 100 µM (inactive)
O=C(CCCCCN1C(=O)c2ccccc2C1=O)Nc1nc(C2CC2)cs1 | > 100 µM (inactive)
CCOc1ccc2nc(N(CCCN(C)C)C(=O)c3ccc(S(=O)(=O)N4CCc5ccccc5C4)cc3)sc2c1 | > 100 µM (inactive)
CN(C)CCCN(C(=O)c1ccc(S(=O)(=O)N2CCc3ccccc3C2)cc1)c1nc2ccc(F)cc2s1 | 60.7 µM
Cc1cc(C)c2sc(N(CCCN(C)C)C(=O)c3ccc(S(=O)(=O)N4CCc5ccccc5C4)cc3)nc2c1 | > 100 µM (inactive)
